# The source made the active and inactive calls. No cut-off for these calls is given here.
# Tests used:
# [1] = tested on: Quadruplex DNA; assay: Binding affinity to c-Kit G-quadruplex DNA (unknown origin) assessed as emission maximum at 5 uM after 5 mins by fluorescence titration method (reference value: 559 nanometer); type: nucleic-acid assay
# [2] = tested on: Quadruplex DNA; assay: Binding affinity to c-Kit G-quadruplex DNA (unknown origin) after 5 mins by UV-Visible absorbance titration method; type: nucleic-acid assay
# [3] = Selectivity ratio of Kb for human telomeric G-quadruplex DNA in presence of sodium ion to Kb for calf thymus DNA
# [4] = tested on: Quadruplex DNA; assay: Binding affinity to human telomeric G-quadruplex DNA assessed as stoichiometric ratio of compound to G-quadruplex DNA after 5 mins in presence of sodium ion by Job plot analysis; type: nucleic-acid assay
# [5] = Selectivity ratio of DC50 for 26-mer duplex DNA (unknown origin) to DC50 for human telomeric G-quadruplex DNA in presence of potassium ion
# [6] = Selectivity ratio of Kb for Bcl2 G-quadruplex DNA (unknown origin) to Kb for calf thymus DNA
# [7] = tested on: Quadruplex DNA; assay: Binding affinity to c-Myc G-quadruplex DNA (unknown origin) assessed as stoichiometric ratio of compound to G-quadruplex DNA after 5 mins by Job plot analysis; type: nucleic-acid assay
# [8] = Selectivity ratio of Kb for c-Myc G-quadruplex DNA (unknown origin) to Kb for calf thymus DNA
# [9] = tested on: Quadruplex DNA; assay: Binding affinity to c-Myc G-quadruplex DNA (unknown origin) assessed as compound fluorescence life time at 5 uM after 5 mins by fluorescence titration method (reference value: 3.626 nanoseconds); type: nucleic-acid assay
# [10] = Selectivity ratio of DC50 for 26-mer duplex DNA (unknown origin) to DC50 for Bcl2 G-quadruplex DNA (unknown origin)
# [11] = tested on: dsDNA; assay: Binding affinity to 26-mer duplex DNA (unknown origin) assessed as compound fluorescence life time at 5 uM after 5 mins by fluorescence titration method (reference value: 3.626 nanoseconds); type: nucleic-acid assay
# [12] = tested on: HepG2; assay: Antiproliferative activity against human HepG2 cells after 72 hrs by MTT assay; type: functional, cell-based; conditions: for IC50: HepG2, 72 h
# [13] = tested on: Quadruplex DNA; assay: Induction of conformational changes in Bcl2 G-quadruplex DNA (unknown origin) at 15 uM after 5 mins by CD spectral analysis; type: nucleic-acid assay
# [14] = molecular target: Quadruplex DNA; assay: Displacement of thiazole orange from human telomeric G-quadruplex DNA after 5 mins in presence of sodium ion by fluorescence spectral analysis; type: nucleic-acid assay
# [15] = tested on: Quadruplex DNA; assay: Binding affinity to human telomeric G-quadruplex DNA after 5 mins in presence of potassium ion by UV-Visible absorbance titration method; type: nucleic-acid assay
# [16] = tested on: Quadruplex DNA; assay: Induction of conformational changes in human telomeric G-quadruplex DNA at 15 uM after 5 mins in presence of potassium ion by CD spectral analysis; type: nucleic-acid assay
# [17] = molecular target: Quadruplex DNA; assay: Displacement of thiazole orange from c-Myc G-quadruplex DNA (unknown origin) after 5 mins by fluorescence spectral analysis; type: nucleic-acid assay
# [18] = Selectivity ratio of DC50 for 26-mer duplex DNA (unknown origin) to DC50 for c-Myc G-quadruplex DNA (unknown origin)
# [19] = tested on: Quadruplex DNA; assay: Binding affinity to human telomeric G-quadruplex DNA assessed as stoichiometric ratio of compound to G-quadruplex DNA after 5 mins in presence of potassium ion by Job plot analysis; type: nucleic-acid assay
# [20] = Selectivity ratio of DC50 for 26-mer duplex DNA (unknown origin) to DC50 for c-Kit G-quadruplex DNA (unknown origin)
# [21] = tested on: Quadruplex DNA; assay: Induction of conformational changes in human telomeric G-quadruplex DNA at 15 uM after 5 mins in presence of sodium ion by CD spectral analysis; type: nucleic-acid assay
# [22] = Selectivity ratio of Kb for human telomeric G-quadruplex DNA in presence of potassium ion to Kb for calf thymus DNA
# [23] = tested on: Quadruplex DNA; assay: Induction of conformational changes in c-Kit G-quadruplex DNA (unknown origin) at 15 uM after 5 mins by CD spectral analysis; type: nucleic-acid assay
# [24] = tested on: Quadruplex DNA; assay: Binding affinity to Bcl2 G-quadruplex DNA (unknown origin) assessed as stoichiometric ratio of compound to G-quadruplex DNA after 5 mins by Job plot analysis; type: nucleic-acid assay
# [25] = tested on: dsDNA; assay: Binding affinity to 26-mer duplex DNA (unknown origin) after 5 mins by UV-Visible absorbance titration method; type: nucleic-acid assay
# [26] = tested on: Quadruplex DNA; assay: Binding affinity to human telomeric G-quadruplex DNA after 5 mins in presence of sodium ion by UV-Visible absorbance titration method; type: nucleic-acid assay
# [27] = tested on: Quadruplex DNA; assay: Binding affinity to c-Myc G-quadruplex DNA (unknown origin) assessed as enhanced fluorescence time at 5 uM after 5 mins by fluorescence titration assay relative to control; type: nucleic-acid assay
# [28] = tested on: Quadruplex DNA; assay: Binding affinity to human telomeric G-quadruplex DNA assessed as red shift at 15 uM after 5 mins in presence of sodium ion by UV-Visible absorbance titration method; type: nucleic-acid assay
# [29] = tested on: Quadruplex DNA; assay: Induction of conformational changes in c-Myc G-quadruplex DNA (unknown origin) at 15 uM after 5 mins by CD spectral analysis; type: nucleic-acid assay
# [30] = molecular target: Quadruplex DNA; assay: Displacement of thiazole orange from Bcl2 G-quadruplex DNA (unknown origin) after 5 mins by fluorescence spectral analysis; type: nucleic-acid assay
# [31] = tested on: HepG2; assay: Induction of morphological changes in human HepG2 cells assessed as debris formation at 10 uM after 24 hrs; type: functional, cell-based
# [32] = tested on: Calf thymus DNA; assay: Binding affinity to calf thymus DNA after 5 mins by UV-Visible absorbance titration method; type: nucleic-acid assay; conditions: Bos taurus
# [33] = Selectivity ratio of Kb for c-Kit G-quadruplex DNA (unknown origin) to Kb for calf thymus DNA
# [34] = tested on: Quadruplex DNA; assay: Binding affinity to human telomeric G-quadruplex DNA assessed as compound fluorescence life time at 5 uM after 5 mins in presence of potassium ion by fluorescence titration method (reference value: 3.626 nanoseconds); type: nucleic-acid assay
# [35] = tested on: Quadruplex DNA; assay: Binding affinity to c-Myc G-quadruplex DNA (unknown origin) after 5 mins by UV-Visible absorbance titration method; type: nucleic-acid assay
# [36] = tested on: Quadruplex DNA; assay: Binding affinity to Bcl2 G-quadruplex DNA (unknown origin) after 5 mins by UV-Visible absorbance titration method; type: nucleic-acid assay
# [37] = tested on: Quadruplex DNA; assay: Binding affinity to c-Kit G-quadruplex DNA (unknown origin) assessed as stoichiometric ratio of compound to G-quadruplex DNA after 5 mins by Job plot analysis; type: nucleic-acid assay
# [38] = molecular target: Quadruplex DNA; assay: Displacement of thiazole orange from c-Kit G-quadruplex DNA (unknown origin) after 5 mins by fluorescence spectral analysis; type: nucleic-acid assay
# [39] = molecular target: Quadruplex DNA; assay: Displacement of thiazole orange from human telomeric G-quadruplex DNA after 5 mins in presence of potassium ion by fluorescence spectral analysis; type: nucleic-acid assay
# [40] = tested on: Quadruplex DNA; assay: Binding affinity to human telomeric G-quadruplex DNA assessed as enhanced fluorescence ratio at 5 uM after 5 mins in presence of sodium ion by fluorescence titration assay relative to control; type: nucleic-acid assay
# [41] = tested on: Quadruplex DNA; assay: Binding affinity to c-Kit G-quadruplex DNA (unknown origin) assessed as hyperchromicity at 15 uM after 5 mins by UV-Visible absorbance titration method; type: nucleic-acid assay
# [42] = molecular target: dsDNA; assay: Displacement of thiazole orange from 26-mer duplex DNA (unknown origin) after 5 mins by fluorescence spectral analysis; type: nucleic-acid assay
# [43] = tested on: Quadruplex DNA; assay: Binding affinity to human telomeric G-quadruplex DNA assessed as emission maximum at 5 uM after 5 mins in presence of potassium ion by fluorescence titration method (reference value: 584 nanometer); type: nucleic-acid assay
# [44] = Drug uptake in human HepG2 cell nucleus at 3 uM after 30 mins by H33258.staining based confocal microscopic method; type: ADME, subcellular; conditions: hepg2, 0.5 h
smiles,measurement,setting,value
CCn1c2ccccc2c2cc(/C=C(\C#N)c3ccc[n+](C)c3)ccc21.[I-],Activity,[1],550 nm
same,Kb,[2],10.7 ×10⁴ /M
same,Selectivity ratio,[3],4.3
same,Ratio,[4],1.9
same,Selectivity ratio,[5],1.98
same,Selectivity ratio,[6],6.2
same,Ratio,[7],2.1
same,Selectivity ratio,[8],12
same,Time,[9],4.12 nanoseconds
same,Selectivity ratio,[10],1.42
same,Time,[11],2.43 nanoseconds
same,Activity,[12],Dose-dependent effect
same,IC50,[12],9.8 µM
same,Activity,[13],inactive
same,DC50,[14],9.85 µM
same,Kb,[15],11.9 ×10⁴ /M
same,Activity,[16],inactive
same,DC50,[17],5.15 µM
same,Selectivity ratio,[18],2.55
same,Ratio,[19],2.2
same,Selectivity ratio,[20],2.17
same,Activity,[21],inactive
same,Selectivity ratio,[22],7.4
same,Activity,[23],inactive
same,Ratio,[24],1.6
same,Kb,[25],2.28 ×10⁴ /M
same,Kb,[26],6.95 ×10⁴ /M
same,fold change (FC),[27],11.2 to 20.6
same,Activity,[28],17 nm
same,Activity,[29],inactive
same,DC50,[30],9.25 µM
same,Activity,[31],Active
same,Kb,[32],1 ×10⁴ /M
same,Selectivity ratio,[33],6.7
same,Time,[34],6.35 nanoseconds
same,Kb,[35],19.2 ×10⁴ /M
same,Kb,[36],9.99 ×10⁴ /M
same,Ratio,[37],2
same,DC50,[38],6.03 µM
same,DC50,[39],6.64 µM
same,Ratio,[40],> 6
same,Activity,[41],39.9%
same,DC50,[42],13.1 µM
CCn1c2ccccc2c2cc(/C=C/c3sc4ccccc4[n+]3CC)ccc21.[I-],Kb,[2],23.9 ×10⁴ /M
same,Selectivity ratio,[3],6
same,Ratio,[4],1.9
same,Selectivity ratio,[5],2.4
same,Selectivity ratio,[6],24.2
same,Ratio,[7],1.9
same,Selectivity ratio,[8],41.6
same,Selectivity ratio,[10],5.17
same,Activity,[12],Dose-dependent effect
same,IC50,[12],2.7 µM
same,Activity,[13],inactive
same,DC50,[14],6.08 µM
same,Kb,[15],18.3 ×10⁴ /M
same,Activity,[43],579 nm
same,Activity,[16],inactive
same,DC50,[17],0.93 µM
same,Selectivity ratio,[18],4.67
same,Ratio,[19],2.2
same,Selectivity ratio,[20],2.02
same,Activity,[21],inactive
same,Selectivity ratio,[22],13.9
same,Activity,[23],inactive
same,Ratio,[24],1.5
same,Kb,[25],3.97 ×10⁴ /M
same,Kb,[26],7.86 ×10⁴ /M
same,Activity,[29],inactive
same,DC50,[30],0.84 µM
same,Kb,[32],1.32 ×10⁴ /M
same,Selectivity ratio,[33],18.1
same,Kb,[35],54.9 ×10⁴ /M
same,Drug uptake,[44],Active
same,Kb,[36],32 ×10⁴ /M
same,Ratio,[37],1.9
same,DC50,[38],2.15 µM
same,DC50,[39],1.81 µM
same,DC50,[42],4.34 µM

# — ChEMBL document CHEMBL4184182, “Studies on interactions of carbazole derivatives with DNA, cell image, and cytotoxicity” (Bioorg Med Chem, 2018)
